Patent publication US11535643B2, “Macrolides with modified desosamine sugars and uses thereof” (President and Fellows of Harvard College, priority 2015, dated 2022)
Converted amounts (≈) assume the structure as drawn.

What was measured:
Assay type in all cases: cell-based
E. coli = assay: Broth dilution MIC determination (CLSI) against E. coli strains
Text: (§1) Minimum inhibitory concentrations (MICs) for macrolides described herein have been determined for unique strains of S. aureus, S. pneumoniae, S. pyogenes, E. faecalis, E. coli, A. baumannii, K. pneumoniae, P. aeruginosa, and H. influenzae, including several multidrug-resistant strains, with a special focus on macrolide resistant mechanisms. Azithromycin and solithromycin were included as control compounds. CLSI standard procedures for broth dilution MIC determination were used. Data for exemplary compounds described herein is shown in Tables M1-M7 and in Tables N1-N4.

S. aureus = assay: Broth dilution MIC determination (CLSI) against S. aureus strains
Text: as §1

P. aeruginosa = assay: Broth dilution MIC determination (CLSI) against P. aeruginosa strains
Text: as §1

A. baumannii = assay: Broth dilution MIC determination (CLSI) against A. baumannii strains
Text: as §1

K. pneumoniae = assay: Broth dilution MIC determination (CLSI) against K. pneumoniae strains
Text: as §1, with “used.” for “used. Data for exemplary compounds described herein is shown in Tables M1-M7 and in Tables N1-N4.”

[1] = E. coli ATCC25922, strain MP-4 (Table N4)
[2] = E. coli Clinical, strain MP-541 (Table N4)
[3] = E. coli clinical-cErmB, strain MP-532 (Table N4)
[4] = E. coli tolC, strain MP-9 (Table N4)
[5] = S. aureus ATCC29213, strain MP-12 (Table N4)
[6] = S. aureus BAA 977 iErm, strain MP-17 (Table N4)
[7] = S. aureus Clinical-cErm, strain MP-513 (Table N4)
[8] = S. aureus USA300-msr(a), strain MP-549 (Table N4)
[9] = P. aeruginosa ATCC27853, strain MP-3 (Table N4)
[10] = P. aeruginosa PAO1, strain MP-7 (Table N4)
[11] = P. aeruginosa mex-oprM-deletion, strain MP-8 (Table N4)
[12] = A. baumannii ATCC 19606, strain MP-15 (Table N4)
[13] = A. baumannii Clinical-AZT low, strain MP-577 (Table N4)
[14] = A. baumannii Clinical-MDR, strain MP-576 (Table N4)
[15] = K. pneumoniae ATCC 10031, strain MP-14 (Table N4)
[16] = K. pneumoniae Clinical, strain MP-548 (Table N4)
[17] = K. pneumoniae Clinical-MDR, strain MP-546 (Table N4)

CCC1OC(=O)C(C)C(=O)C(C)C(OC2OC(C)CC(N(C)CCCS(C)(=O)=O)C2O)C(C)(OC)CC(C)CNC(C)C2N(CCCCn3cc(-c4cccc(N)c4)nn3)C(=O)OC12C (centres unmarked) [FSM-120420]
MIC (E. coli; [1]): 64 µg/mL (≈ 68.5 µM)
MIC (E. coli; [2]): 32 µg/mL (≈ 34.3 µM)
MIC (E. coli; [3]): >64 µg/mL
MIC (E. coli; [4]): 2 µg/mL (≈ 2.14 µM)
MIC (S. aureus; [5]): 32 µg/mL (≈ 34.3 µM)
MIC (S. aureus; [6]): 32 µg/mL (≈ 34.3 µM)
MIC (S. aureus; [7]): >64 µg/mL
MIC (S. aureus; [8]): 64 µg/mL (≈ 68.5 µM)
MIC (P. aeruginosa; [9]): >64 µg/mL
MIC (P. aeruginosa; [10]): >64 µg/mL
MIC (P. aeruginosa; [11]): 64 µg/mL (≈ 68.5 µM)
MIC (A. baumannii; [12]): 32 µg/mL (≈ 34.3 µM)
MIC (A. baumannii; [13]): 64 µg/mL (≈ 68.5 µM)
MIC (A. baumannii; [14]): >64 µg/mL
MIC (K. pneumoniae; [15]): 16 µg/mL (≈ 17.1 µM)
MIC (K. pneumoniae; [16]): >64 µg/mL
MIC (K. pneumoniae; [17]): >64 µg/mL

CCC1OC(=O)C(C)C(=O)C(C)C(OC2OC(C)CC(N3CCC(O)C3)C2O)C(C)(OC)CC(C)CNC(C)C2N(CCCCn3cc(-c4cccc(N)c4)nn3)C(=O)OC12C (centres unmarked) [FSM-120417]
MIC (E. coli; [1]): 16 µg/mL (≈ 18.4 µM)
MIC (E. coli; [2]): 16 µg/mL (≈ 18.4 µM)
MIC (E. coli; [3]): >64 µg/mL
MIC (E. coli; [4]): 2 µg/mL (≈ 2.3 µM)
MIC (S. aureus; [5]): 32 µg/mL (≈ 36.8 µM)
MIC (S. aureus; [6]): 64 µg/mL (≈ 73.6 µM)
MIC (S. aureus; [7]): >64 µg/mL
MIC (S. aureus; [8]): 64 µg/mL (≈ 73.6 µM)
MIC (P. aeruginosa; [9]): >64 µg/mL
MIC (P. aeruginosa; [10]): >64 µg/mL
MIC (P. aeruginosa; [11]): 32 µg/mL (≈ 36.8 µM)
MIC (A. baumannii; [12]): 32 µg/mL (≈ 36.8 µM)
MIC (A. baumannii; [13]): 32 µg/mL (≈ 36.8 µM)
MIC (A. baumannii; [14]): >64 µg/mL
MIC (K. pneumoniae; [15]): 4 µg/mL (≈ 4.6 µM)
MIC (K. pneumoniae; [16]): 64 µg/mL (≈ 73.6 µM)
MIC (K. pneumoniae; [17]): >64 µg/mL

CCC1OC(=O)C(C)C(=O)C(C)C(OC2OC(C)CC(Nc3cnccn3)C2O)C(C)(OC)CC(C)CNC(C)C2N(CCCCn3cc(-c4cccc(N)c4)nn3)C(=O)OC12C (centres unmarked) [FSM-120410]
MIC (E. coli; [1]): >64 µg/mL
MIC (E. coli; [2]): >64 µg/mL
MIC (E. coli; [3]): >64 µg/mL
MIC (E. coli; [4]): >64 µg/mL
MIC (S. aureus; [5]): >64 µg/mL
MIC (S. aureus; [6]): >64 µg/mL
MIC (S. aureus; [7]): >64 µg/mL
MIC (S. aureus; [8]): >64 µg/mL
MIC (P. aeruginosa; [9]): >64 µg/mL
MIC (P. aeruginosa; [10]): >64 µg/mL
MIC (P. aeruginosa; [11]): >64 µg/mL
MIC (A. baumannii; [12]): >64 µg/mL
MIC (A. baumannii; [13]): >64 µg/mL
MIC (A. baumannii; [14]): >64 µg/mL
MIC (K. pneumoniae; [15]): >64 µg/mL
MIC (K. pneumoniae; [16]): >64 µg/mL
MIC (K. pneumoniae; [17]): >64 µg/mL

CCC1OC(=O)C(C)C(=O)C(C)C(OC2OC(C)CC(N(C)CCCS(C)(=O)=O)C2O)C(C)(OC)CC(C)CN(C)C(C)C2N(CCCCn3cc(-c4cccc(N)c4)nn3)C(=O)OC12C (centres unmarked) [FSM-120421]
MIC (E. coli; [1]): >64 µg/mL
MIC (E. coli; [2]): >64 µg/mL
MIC (E. coli; [3]): >64 µg/mL
MIC (E. coli; [4]): 64 µg/mL (≈ 67.5 µM)
MIC (S. aureus; [5]): >64 µg/mL
MIC (S. aureus; [6]): >64 µg/mL
MIC (S. aureus; [7]): >64 µg/mL
MIC (S. aureus; [8]): >64 µg/mL
MIC (P. aeruginosa; [9]): >64 µg/mL
MIC (P. aeruginosa; [10]): >64 µg/mL
MIC (P. aeruginosa; [11]): >64 µg/mL
MIC (A. baumannii; [12]): >64 µg/mL
MIC (A. baumannii; [13]): >64 µg/mL
MIC (A. baumannii; [14]): >64 µg/mL
MIC (K. pneumoniae; [15]): 64 µg/mL (≈ 67.5 µM)
MIC (K. pneumoniae; [16]): >64 µg/mL
MIC (K. pneumoniae; [17]): >64 µg/mL
